In patent US9688653B2, “Ethoxyphenyl thienyl compounds and methods for the treatment of bacterial infections” (Duke University, priority 2013, dated 2017):

Assays:
E. coli K1 strain UTI89 [1] = test: Secondary assay 2: T7 phage-mediated lysis assay; type: cell-based, Escherichia coli; settings: n = 2, read-out: T7 phage IC50
From the text: D. Secondary Assay 2: Screening for Inhibitors of Bacterial Capsule Biogenesis—T7 Lysis Inhibition
Purpose: This secondary assay measures the compound mechanistic specificity for inhibition of bacterial capsule formation and excludes inhibitors of phage replication using a different bacteriophage (T7). In this assay, an increase in phage-induced lysis correlates to a decrease in capsule formation.
Purpose: This secondary assay measures the compound mechanistic specificity for inhibition of bacterial capsule formation using a different bacterial phage (T7). In this assay, an increase in phage-induced lysis correlates to a decrease in capsule formation.
Assay Description: T7 phage-mediated lysis assay: This assay determined if the mechanism of action of the compound is inhibition of phage infectivity or replication. The T7 phage has a nearly identical genome to K1F, without encoding an endosialidase. Its cycle of replication is similar to that of K1F as well. However, T7 entry into E. coli is inhibited by K capsules. This secondary assay was conducted in the 96 well plate format. […] Compounds were added in quadruplicate to plates in a concentration dependent manner in the range of 100-0.39 μM, followed by addition of 100 μL of bacterial culture. 1% DMSO (final well concentration) was included. The plates were tape sealed and shaken vigorously for 1.5 hr. An initial OD600 reading was measured to identify compounds that cause growth retardation or bacterial killing in the absence of phage. Next, T7 phage (5 μL) was added to all of the test wells. The plates were resealed and shaken vigorously at 37° C., and measurements of OD600 for phage-mediated lysis were taken after 3 hr. True inhibitors of capsule yielded bacteria that were susceptible to T7 phage and lysed within 2 hr of the addition of phage. […] The positive control drug C7 (100 μM final well concentration) was used in this screen.
T7 phage counter assay. This secondary assay was performed as previously described and was used to distinguish compounds with phage inhibitory effects from true polysaccharide capsule inhibitors. […] Thus, the presence of a capsule inhibits T7-mediated lysis. In this assay, an increase in phage-induced lysis correlates to a decrease in capsule formation. True inhibitors of capsule yielded bacteria that were susceptible to T7 phage and lysed within 2 hr of the addition of phage. […] The positive control molecule C7 (100 μM final well concentration) was used in this screen.

[2] = system: Bladder carcinoma 5637 cells; test: Cytotoxicity counterscreen, CellTiter Glo, 72 hr; type: cell-based, human
Experimental: B. Counterscreen: Cytotoxicity Screening for Potential Inhibitors of Bacterial Capsule Biogenesis.
Purpose: This cell-based assay measures the cytotoxicity of compounds in bladder carcinoma 5637 cells using luminescent cell viability assay readout.
Cytotoxicity assay: The cytotoxicity assay was performed as described in Section 6: Appendix. Hit cytotoxicity and the 50% toxic concentration (CC50) was determined and compared to the IC50 to calculate the selectivity index.
Assay Description: Cytotoxicity: Dose response testing (dose range=300-0.58 μM) established the hit cytotoxicity data. Compounds were plated in 384-well microplates in a stacked dose response format using the same doses used in the efficacy dose response. Bladder carcinoma 5637 cells were added to the compounds, and 72 hr later cell viability was measured using CellTiter Glo (38). Hit cytotoxicity and the 50% toxic concentration (TC50) was determined and compared to the IC50 to calculate the therapeutic index. Test compounds are serially diluted in a plate to plate matrix or stacked plate matrix. All 320 compounds in a source plate are diluted together resulting in a 10 point dose response dilution series. It is visualized as a serial dilution series proceeding vertically through a stack of plates with the high dose plate on top and the low dose plate on the bottom.
Control Drug: Hyamine was used as a positive cytotoxic control. All wells contained 0.5% DMSO.
Preparation of Bladder carcinoma 5637 cells: Cells are harvested and resuspended to 80,000 cells per ml in Complete DMEM/F12®.
Endpoint Read: Following the three day incubation period, the assay plates were equilibrated to room temperature for 30 min and an equal volume (30 μL) of Cell Titer-Glo® reagent (Promega Inc.) is added to each well using a WellMate™ (Matrix, Hudson, N.H.) and plates are incubated for an additional 10 min at room temperature. At the end of the incubation, luminescence is measured using a Perkin Elmer Envision™ multi-label reader (PerkinElmer, Wellesley, Mass.) with an integration time of 0.1 s.
Cytotoxicity. Testing was performed essentially as previously described. Concentration-response testing was performed over a range 0.58-300 μM in a […] well plate format. Bladder carcinoma 5637 cells (ATCC HTB-9) were added to the compounds, and 72 hrs later cell viability was measured using CellTiter Glo (Promega). The 50% toxic concentration (TC50) was determined and compared to the IC50 to calculate the therapeutic index. Hyamine was used as a positive cytotoxic control. All wells contained 0.5% DMSO.

E. coli K1 strain UTI89 [3] = test: microbe, parasite or virus in culture; settings: read-out: K1 phage IC50, n = 3
From the text: The ability of the […] to bind to bacterial capsule, infect, and lyse E. coli UT189 was used as the primary assay to identify the effects of screened compounds on bacterial capsule formation. The phenotypic end-point assay measured the fluorescence generated by cellular processing of Alamar Blue as a direct indicator of cell viability. A total of […] compounds were screened using the primary assay. […] Hits were further evaluated using […] secondary assays for alternative measurement of compound-induced reduction in bacterial capsule formation (secondary assays 1 and 2) and specificity (secondary assays 3 and 4). Confirmed actives with an SI>5 were further investigated and subjected to chemical optimization, followed by secondary assay evaluation. Secondary assays more closely characterized the ability of the compounds to reduce bacterial capsule formation and can be used to examine the mechanism of action of the compounds. The combination of primary assay (to measure capsule reduction), counter assay (for general eukaryotic cell toxicity) and secondary assay (to measure reduction in capsule formation and specificity) were combined to allow a determination of probe efficacy, selectivity, and specificity.
A. Primary Assay: Screening for Inhibitors of Bacterial Capsule Biogenesis.
Primary assay: An end-point assay to measure the amount of K1 phage-induced bacterial cell lysis was employed to determine the compound effect on capsule biogenesis. K1 bacteriophage specifically binds the bacterial capsule during the initial stages of infection. Bacteria without capsule cannot be infected and lysed by the bacteriophage. […] A total of 338,740 compounds were screened at 100 μM in the primary screen Inhibition of phage lysis was calculated relative to the mean of the bacterial (positive) control on each microtiter plate. […] For calculation of S/B/Z value, and CV, the following formulae (in which SD stands for standard deviation) were used: S/B=mean signal/mean background; Z=1-3SD of sample+3SD of control mean of sample−mean of control; % CV=(SD mean signal/mean signal)×100.
IC50 values were calculated using a 4 parameter Levenburg-Marquardt algorithm, with the maximum and minimum locked at 0 and 100 respectively.
Primary assay: The primary assay was conducted in the 1,536 well plate format. Bacterial cultures of E. coli K1 strain UTI89 (cystitis isolate) and isogenic capsule mutant strains (as controls for phage infection) were grown and prepared at the screening center immediately prior to use. Overnight starting cultures of UTI89 were grown at 37° C., and inoculated into 1 liter of LB (starting OD600˜0.03), which was sufficient for screening 40 plates (including ˜10% waste) and ˜40,000 compounds as single points.
Control wells contained UTI89 (wt K1) with 0.5% DMSO as a simulated positive control; UTI89 with 0.5% DMSO and tetracycline for a negative growth control; and media plus vehicle control. 50 mL of LB Broth was inoculated with stock 150 μL E. coli UT189 and grown overnight at 37° C. The next day, cultures were diluted 1:75 in 1 L of LB Broth containing 0.5% DMSO. 3 μL of this culture was added to each plate well, and plates were incubated, inverted, at 37° C. for 2 hr. The K1F bacteriophage stock was diluted 1:8 in LB Broth containing 0.5% DMSO, and 1.5 μL of diluted phage (or media only) was added to the pre-plated test compound wells and appropriate control wells. The plates were centrifuged briefly, and then were incubated, inverted, at 37° C. for an additional 2 hr. Afterward, Alamar Blue reagent (Invitrogen, #DAL1100) was diluted 1:2 with LB broth and 1 μL was added to each plate well.

[4] = first round of synthetic analogues

O=C(Nc1cc(-c2ccccc2)sc1C(=O)O)c1cccc(Cl)c1 [compound 23602077]
IC50 (E. coli K1 strain UTI89 [1]; purchased analogue series): 34400 nM
IC50 [2]: 43.8 µM
IC50 (E. coli K1 strain UTI89 [3]; purchased analogue series): 84.5 µM

CCOc1ccc(-c2cc(NC(=O)c3ccc(OC)c(OC)c3)c(C(=O)O)s2)cc1 [compound 23602082]
IC50 (E. coli K1 strain UTI89 [1]; purchased analogue series): 8000 nM
IC50 [2]: 72.3 µM
IC50 (E. coli K1 strain UTI89 [3]; purchased analogue series): 57.9 µM

CCOc1ccc(-c2cc(NC(=O)c3ccc(Br)s3)c(C(=O)O)s2)cc1 [compound 53470415]
IC50 (E. coli K1 strain UTI89 [1]; [4]): 3340 nM
IC50 [2]: 49.7 µM
IC50 (E. coli K1 strain UTI89 [3]; [4]): 17 µM

O=C(Nc1cc(-c2ccc(C(F)(F)F)cc2)sc1C(=O)O)c1ccc(Br)o1 [compound 53470416]
IC50 (E. coli K1 strain UTI89 [1]; [4]): 2590 nM
IC50 [2]: 47.5 µM
IC50 (E. coli K1 strain UTI89 [3]; [4]): 12.3 µM

O=C(Nc1cc(-c2ccc(C(F)(F)F)cc2)sc1C(=O)O)c1cc2ccccc2o1 [compound 53470417]
IC50 (E. coli K1 strain UTI89 [1]; [4]): 7180 nM
IC50 [2]: 72.1 µM
IC50 (E. coli K1 strain UTI89 [3]; [4]): > 100 µM

O=C(Nc1cc(-c2ccc(C(F)(F)F)cc2)sc1C(=O)O)c1cccc(F)c1 [compound 53470418]
IC50 (E. coli K1 strain UTI89 [1]; [4]): 12800 nM
IC50 [2]: 35.1 µM
IC50 (E. coli K1 strain UTI89 [3]; [4]): > 100 µM

CC(C)c1ccc(-c2cc(NC(=O)c3ccc(Br)o3)c(C(=O)O)s2)cc1 [compound 53470420]
IC50 (E. coli K1 strain UTI89 [1]; [4]): 1240 nM
IC50 [2]: 50.4 µM
IC50 (E. coli K1 strain UTI89 [3]; [4]): 3.08 µM

Cc1ccc(-c2cc(NC(=O)c3c(F)cccc3F)c(C(=O)O)s2)cc1 [compound 53470422]
IC50 (E. coli K1 strain UTI89 [1]; [4]): 2420 nM
IC50 [2]: 57.3 µM
IC50 (E. coli K1 strain UTI89 [3]; [4]): 40.3 µM

Cc1ccc(-c2cc(NC(=O)c3ccc(Br)o3)c(C(=O)O)s2)cc1 [compound 53470423]
IC50 (E. coli K1 strain UTI89 [1]; [4]): 1010 nM
IC50 [2]: 50.7 µM
IC50 (E. coli K1 strain UTI89 [3]; [4]): 15.7 µM

CC(C)(C)c1ccc(-c2cc(NC(=O)c3cc4ccccc4o3)c(C(=O)O)s2)cc1 [compound 53470424]
IC50 (E. coli K1 strain UTI89 [1]; [4]): 2820 nM
IC50 [2]: 34.5 µM
IC50 (E. coli K1 strain UTI89 [3]; [4]): > 100 µM

CCOc1ccc(-c2cc(NC(=O)c3cc4ccccc4o3)c(C(=O)O)s2)cc1 [compound 53470427]
IC50 (E. coli K1 strain UTI89 [1]; [4]): 2750 nM
IC50 [2]: 193 µM
IC50 (E. coli K1 strain UTI89 [3]; [4]): > 100 µM

O=C(Nc1cc(-c2ccc(C(F)(F)F)cc2)sc1C(=O)O)c1ccc(Br)s1 [compound 53470428]
IC50 (E. coli K1 strain UTI89 [1]; [4]): 14100 nM
IC50 [2]: 38.5 µM
IC50 (E. coli K1 strain UTI89 [3]; [4]): > 50 µM

Cc1ccc(-c2cc(NC(=O)c3ccc(Br)s3)c(C(=O)O)s2)cc1 [compound 53470429]
IC50 (E. coli K1 strain UTI89 [1]; [4]): 10700 nM
IC50 [2]: 64 µM
IC50 (E. coli K1 strain UTI89 [3]; [4]): > 50 µM

COc1ccc(-c2cc(NC(=O)c3c(F)cccc3F)c(C(=O)O)s2)cc1 [compound 53470430]
IC50 (E. coli K1 strain UTI89 [1]; [4]): 2640 nM
IC50 [2]: 239 µM
IC50 (E. coli K1 strain UTI89 [3]; [4]): > 100 µM

CC(C)c1ccc(-c2cc(NC(=O)c3ccc(Br)s3)c(C(=O)O)s2)cc1 [compound 53470432]
IC50 (E. coli K1 strain UTI89 [1]; [4]): 2740 nM
IC50 [2]: 33.1 µM
IC50 (E. coli K1 strain UTI89 [3]; [4]): > 100 µM

CC(C)(C)c1ccc(-c2cc(NC(=O)c3c(F)cccc3F)c(C(=O)O)s2)cc1 [compound 53470433]
IC50 (E. coli K1 strain UTI89 [1]; [4]): 1640 nM
IC50 [2]: 35.1 µM
IC50 (E. coli K1 strain UTI89 [3]; [4]): 11.5 µM

CC(C)c1ccc(-c2cc(NC(=O)c3cc4ccccc4o3)c(C(=O)O)s2)cc1 [compound 53470434]
IC50 (E. coli K1 strain UTI89 [1]; [4]): 2700 nM
IC50 [2]: 47.2 µM
IC50 (E. coli K1 strain UTI89 [3]; [4]): 42.9 µM

CC(C)(C)c1ccc(-c2cc(NC(=O)c3cccc(F)c3)c(C(=O)O)s2)cc1 [compound 53470435]
IC50 (E. coli K1 strain UTI89 [1]; [4]): 2700 nM
IC50 [2]: 21.1 µM
IC50 (E. coli K1 strain UTI89 [3]; [4]): 19.9 µM

Cc1ccc(-c2cc(NC(=O)c3cc4ccccc4o3)c(C(=O)O)s2)cc1 [compound 53470436]
IC50 (E. coli K1 strain UTI89 [1]; [4]): 20000 nM
IC50 [2]: 94.6 µM
IC50 (E. coli K1 strain UTI89 [3]; [4]): > 100 µM

CC(C)c1ccc(-c2cc(NC(=O)c3c(F)cccc3F)c(C(=O)O)s2)cc1 [compound 53470439]
IC50 (E. coli K1 strain UTI89 [1]; [4]): 1270 nM
IC50 [2]: 32.4 µM
IC50 (E. coli K1 strain UTI89 [3]; [4]): 7.09 µM

O=C(O)c1sc(-c2ccc(C(F)(F)F)cc2)cc1NC(=O)c1c(F)cccc1F [compound 53470440]
IC50 (E. coli K1 strain UTI89 [1]; [4]): 3800 nM
IC50 [2]: 44.8 µM
IC50 (E. coli K1 strain UTI89 [3]; [4]): 23.7 µM
